This is an account of results in PMC3436892, “Novel African Trypanocidal Agents: Membrane Rigidifying Peptides” (PLoS ONE, 2012).

One data set deals with metacyclic T. b. brucei. Description: 2 h in vitro killing assay, metacyclic form. It is filed as cell-based, Trypanosoma brucei brucei strain STIB247. As to conditions: 2 h incubation, 1×10^4 cells/mL, HMI 9 with 10 % fetal bovine serum, live cells scored by hemocytometer, at least duplicate (Fig. 1a). The procedure: (§1) Light microscopy based trypanosome killing assays were performed as previously described in detail, [10], [21], [22]. Metacyclic Trypanosoma brucei brucei strain STIB247 were obtained from dissection of the salivary glands of infected tsetse flies. Newly hatched Glossina morsitans morsitans (24–48 h post eclosion) were fed two defibrinated horse blood meals containing 2×10^6 mL^-1 trypanosomes on two separate days. Flies were then maintained at 25°C in 75 % relative humidity and fed maintenance blood meals three times per week. Following day 20–30, flies were harvested and salivary glands were dissected out and placed into HMI 9 media containing 10 % fetal bovine serum for 30 minutes. Metacyclic cells were expelled into the media by the residual peristalsis of the salivary glands. Cells were collected via centrifugation and maintained in HMI 9 media with 20 % fetal bovine serum at 37°C in 5 % CO2 until use. Killing assays were conducted with 1×10^4 cells/mL in HMI 9 media containing 10 % fetal bovine serum. Live cells were scored via hemocytometer after 2 h incubation. Trypanosoma vivax strain ILRAD V34 and Trypanosoma congolense strain IL3000 were grown from stabilites in donor ICR mouse (Harlan, United Kingdom). […] Cells were incubated at 37°C for 2 h and live cells were scored visually via hemocytometer. […]

For data set [1], the system named is Bloodstream developmental forms of T. vivax. Description: 2 h in vitro killing assay, T. vivax. The format is cell-based, Trypanosoma vivax strain ILRAD V34. As to conditions: 37°C, 1×10^7 cells/mL, HMI 9 with 20 % bovine serum, hemocytometer, at concentrations similar to BSF T. brucei (Fig. 1b). The procedure: as §1
Data set [2] has as its system Bloodstream developmental forms of T. congolense. Description: 2 h in vitro killing assay, T. congolense. The format is cell-based, Trypanosoma congolense strain IL3000. The following applies: 37°C, 1×10^7 cells/mL, HMI 9 with 20 % bovine serum, hemocytometer, at concentrations similar to BSF T. brucei (Fig. 1b). As for the experimental part: as §1
Data set [3] has as its system interfacial region of the plasma membrane of BSF T. b. brucei. Description: TMA-DPH fluorescence anisotropy (interfacial membrane rigidity). It is filed as cell-based, Trypanosoma brucei brucei. As to conditions: live BSF cells 3×10^6 cells/mL in PBS, 0.5 µM TMA-DPH, 37°C, increasing SHP concentrations, triplicate (Fig. 2b). As for the experimental part:
The plasma membrane rigidity of live T. b. brucei was determined by measuring the fluorescence depolarization of diphenyl-1,3,5- hexatriene p-toluenesulfonate (DPH) or 1-(4-trimethylammoniumphenyl)-6-diphenyl-1,3,5- hexatriene p-toluenesulfonate (TMA-DPH; Invitrogen T204). Cells were washed 3 times with and resuspended in phosphate buffered saline at a density of 3×10^6 cells/mL. The anisotropic probes were added to a final concentration of 0.5 µM and allowed to intercalate into the cell membrane for 1 h in the dark. Anisotropic values were acquired via the software function of a PerkinElmer Life Sciences LS55 spectrofluorometer. Samples were excited at 358 nm, and emission was read at 430 nm, with 10-nm excitation and emission slit widths. Temperature was maintained at 37°C by means of the PerkinElmer LS55 Biokinetics accessory. Data were corrected for light scattering with an unlabeled sample of cells, and anisotropy was calculated according to the equation r = (IVV - GIVH)/(IVV + 2GIVH), where r is the anisotropy value, IVV is the emission intensity acquired with the excitation- and emission-polarizing filters set vertically, G is the instrument correction factor, and IVH is the emission intensity acquired with the excitation-polarizing filter set vertically and the emission-polarizing filter set horizontally. […]

Data set [4] in a line: Parallax analysis of tryptophan penetration depth. It is filed as physicochemical. The following applies: 500 nM peptide, PBS, 37°C, 22 h. As for the experimental part:
The hydrocarbon penetration depth of tryptophans spaced throughout synthetic peptides corresponding to SHP-1 or SHP-3 (Table S1) was determined by parallax analysis with brominated phosphatidylcholine liposomes. Large unilamellar liposomes composed of egg phosphatidylcholine and 10 mol % 1-palmitoyl-2-(6,7-dibromo)stearoyl-sn-glycero-3-phosphocholine (shallow quencher) or 1-palmitoyl-2-(9,10-dibromo)stearoyl-sn-glycero-3-phosphocholine (deep quencher) were constructed by hydration of a thin dry lipid film with phosphate buffered saline. Resulting multilamellar liposomes were made unilameller via extrusion through polycarbonate filters with 0.1 µm pores. Peptides (500 nM) were incubated with 200 µg/ml liposomes in phosphate buffered saline at 37°C for 22 h. Tryptophan fluorescence at 357 nm was measured from at least triplicate trials in the PerkinElmer Life Sciences LS55 spectrofluorometer and an excitation wavelength of 280 nm for SHP-1 and 290 nm for SHP-2, 10 nm excitation and 9 nm emission slit widths. The distance of tryptophans from the bilayer center (ZCF) is calculated from the equation [12]: [drawing 1] Where LC1 is the distance from the center of the bilayer to the shallow quencher, in this case 10.8 Å for 6,7-dibromo-PC [25], F1 is the intensity of tryptophan in the presence of the shallow quencher and F2 is the tryptophan intensity in the presence of the deep quencher, C is the mole fraction of quencher divided by the area of individual phospholipid (70 Å^2), and L21 is the difference in the depth of the two quenchers (2.7 Å). The hydrocarbon insertion depth of tryptophans is then given by one half the bilayer thickness, 29 Å [25], minus ZCF.

The nature of data set [5]: Circular dichroism spectroscopy. The format is physicochemical. The procedure:
Spectra were recorded with a Jasco J-710 spectropolarimeter in a 1 mm quartz cuvette. Measurements were performed with a final concentration of 15 µM SHP-1 added from a stock of ethanol-solubilized peptide (final ethanol concentration 7.5 %) in 10 mM K2PO4, 50 mM Na2PO4, pH 7.5. Lipid associated peptide spectra were recorded with the addition of 0.1 µm unilamellar egg phosphatidylcholine liposomes at a peptide to lipid ration of 0.3. Spectra were averaged from four scans and the appropriate buffer scans were subtracted.
For orientation: Circular dichroism is the unequal absorption of left and right circularly polarised light.

For a further data set, the system named is BSF T. b. brucei. As to conditions: veterinary and human pathogenic BSF T. brucei; cited from earlier work. The source says: Specificity of SHP is mediated by a high degree of fluidity in the plasma membrane of BSF cells. […] Human cells, including erythrocytes, are refractory to SHP concentrations orders of magnitude higher than necessary to kill BSF T. brucei.

Consider “SDLGAVISLLLWGRQLFA [SHP-1, trypanocidal small hydrophobic peptide derived from an apolipoprotein, with characteristics of a secretory signal peptide]”, for which the “killing activity against metacyclic T. b. brucei” value with metacyclic T. b. brucei is “no killing activity”. For the same sequence, in data set [1], the “susceptibility of BSF T. vivax to killing” value is “susceptible to killing”. Further, the “susceptibility of BSF T. congolense to killing” value in data set [2] is reported as “susceptible to killing”. In addition, in data set [3], the “interfacial rigidity of the plasma membrane (TMA-DPH fluorescence depolarization)” value was “increased the interfacial rigidity”. The “distance of tryptophan at position 1 from the membrane interface” value in data set [4] (Trp-substituted variant W1, 200 µg/ml egg PC liposomes with 10 mol % 6,7- or 9,10-dibromo-PC, bilayer thickness 29 Å, at least triplicate) is listed as “approximately 1.1 Å”. Moreover, the “distance of tryptophan at position 8 from the membrane interface” value in data set [4] (Trp-substituted variant W8, 200 µg/ml brominated egg PC liposomes) is recorded as “approximately 7.8 Å”. The “distance of tryptophan at position 18 from the membrane interface” value in data set [4] (Trp-substituted variant W18, 200 µg/ml brominated egg PC liposomes) is given as ~2.0 Å. In addition, the “distance of tryptophan at position 12 from the membrane interface” value in data set [4] (native tryptophan, 200 µg/ml brominated egg PC liposomes) is recorded as ~5.1 Å. In addition, the “F1/F2 ± S.D.” value in data set [4] (ratio of tryptophan fluorescence intensity (357 nm) with shallow (6,7-dibromo-PC, F1) and deep (9,10-dibromo-PC, F2) quencher, 200 µg/ml liposomes, at least triplicate) came to 0.9676 ± 0.0560. Besides, in data set [5] (15 µM peptide with 0.1 µm unilamellar egg phosphatidylcholine liposomes, peptide to lipid ratio 0.3, pH 7.5, peak 193 nm, minimum 208 nm), the “secondary structure in the presence of lipid (CD)” value is given as “α-helical structure”. For the same sequence, in data set [5] (15 µM peptide, 7.5 % ethanol, 10 mM K2PO4, 50 mM Na2PO4, pH 7.5, peak 195 nm, crossover about 205 nm, minimum 218 nm), the “secondary structure in solution (CD)” value is “β-sheet conformation”. In the data set with BSF T. b. brucei, the “susceptibility of BSF T. brucei to killing” value was “uniquely susceptible to killing”.
